Data published in patent publication US9670204B2, “Compounds and pharmaceutical compositions thereof for the treatment of inflammatory disorders” (Galapagos NV, priority 2013, dated 2017).

Assays:
hENPP2 [1] = molecular target: T1, hENPP2 (UniProtKB/SwissProt Q13822) (Homo sapiens (Human), UniProt Q13822); assay: fluorescent hENPP2 biochemical assay, FS-3 as substrate; settings: read-out: FS3-IC50
Procedure: Compound IC50 values are determined in a fluorescent hENPP2 (UniProtKB/SwissProt Sequence ref Q13822) biochemical assay using the fluorogenic autotaxin substrate FS-3 as substrate. FS-3 is a doubly labeled analog of LPC wherein the fluorophore is quenched through intramolecular energy transfer. Without hENPP2, the emission of the probe is quenched. If the substrate is hydrolyzed by hENPP2, the emission of the probe is not quenched anymore resulting in a fluorescence increase.
The enzyme is diluted in 50 mM Tris-HCl pH 8.0, 250 mM NaCl, 5 mM KCl, 1 mM MgCl2, 1 mM CaCl2, 0.1% fatty acid free BSA in a total volume of 20 μL. Enzyme mixture is added to compounds and the resulting mixture is incubated for 30 min at room temperature under shaking. The reaction is started by the addition of 20 μL of 0.75 μM FS-3 diluted in the same buffer as described above and the mixture is incubated at 30° C. for 30 min. Fluorescence is read on the Envision (Excitation 485 nm, emission 520 nm).

hENPP2 [2] = molecular target: T1, hENPP2; assay: hENPP2 biochemical assay, LPC as substrate; settings: LPC (palmitoyl 16:0) as substrate
Outline: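 Human ENPP2 in 50 mM Tris-HCl pH 8.5, 500 mM NaCl, 5 mM KCl, 10 mM CaCl2, 0.1% fatty-acid-free BSA, reacted 30 min at 37 °C with LPC 16:0 (150 µM solution added 1:1). Released choline measured via choline oxidase/peroxidase/TOOS/4-aminoantipyrine quinoneimine dye at 555 nm; IC50 reported.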

SMILES	IC50 (hENPP2 [1]) [nM]	IC50 (hENPP2 [2]) [nM]
CCc1nc2ccc(N3CCN(C(=O)OC(C)(C)C)CC3=O)cn2c1N(C)c1nc(-c2ccc(F)cc2)cs1 [Compound 62, 4-(2-Ethyl-3-{[4-(4-fluoro-phenyl)-thiazol-2-yl]-methyl-amino}-imidazo[1,2-a]pyridin-6-yl)-3-oxo-piperazine-1-carboxylic acid tert-butyl est]	0.01 to 100	> 1000
CCc1nc2ccc(N3CCN(C(=O)OC(C)(C)C)CC3=O)cn2c1N(C)c1nc(-c2ccc(Cl)cc2)cs1 [Compound 63, tert-butyl 4-(3-((4-(4-chlorophenyl)thiazol-2-yl)(methyl)amino)-2-ethylimidazo[1,2-a]pyridin-6-yl)-3-oxopiperazine-1-carboxylate]	0.01 to 100	> 1000
CCOC(=O)CN1CCN(c2ccc3nc(CC)c(N(C)c4nc(-c5ccc(F)cc5)cs4)n3c2)C(=O)C1 [Compound 64, ethyl 2-(4-(2-ethyl-3-((4-(4-fluorophenyl)thiazol-2-yl)(methyl)amino)imidazo[1,2-a]pyridin-6-yl)-3-oxopiperazin-1-yl)acetate]	0.01 to 100	> 1000
CCc1nc2ccc(N3CCN(S(C)(=O)=O)CC3=O)cn2c1N(C)c1nc(-c2ccc(F)cc2)cs1 [Compound 65, 1-(2-ethyl-3-((4-(4-fluorophenyl)thiazol-2-yl)(methyl)amino)imidazo[1,2-a]pyridin-6-yl)-4-(methylsulfonyl) piperazin-2-one]	0.01 to 100	> 1000
CCc1nc2ccc(C3=CCN(S(=O)(=O)CCl)CC3)cn2c1N(C)c1nc(-c2ccc(F)cc2)cs1 [Compound 67, N-(6-(1-(chloromethylsulfonyl)-1,2,3,6-tetrahydropyridin-4-yl)-2-ethylimidazo[1,2-a]pyridin-3-yl)-4-(4-fluorophenyl)-N-methylthiazol-2-amine]	0.01 to 100	> 1000
CCc1nc2ccc(C3=CCN(S(C)(=O)=O)C3)cn2c1N(C)c1nc(-c2ccc(Cl)cc2)cs1 [Compound 68, 4-(4-chlorophenyl)-N-(2-ethyl-6-(1-(methylsulfonyl)-2,5-dihydro-1H-pyrrol-3-yl)imidazo[1,2-a]pyridin-3-yl)-N-methylthiazol-2-amine]	0.01 to 100	> 1000
CCc1nc2ccc(C3=CN(S(C)(=O)=O)CCC3)cn2c1N(C)c1nc(-c2ccc(Cl)cc2)cs1 [Compound 69, 4-(4-chlorophenyl)-N-(2-ethyl-6-(1-(methylsulfonyl)-1,4,5,6-tetrahydropyridin-3-yl)imidazo[1,2-a]pyridin-3-yl)-N-methylthiazol-2-amine]	0.01 to 100	> 1000
CCc1nc2ccc(C3=CCN(S(=O)(=O)CCCOC(C)=O)CC3)cn2c1N(C)c1nc(-c2ccc(F)cc2)cs1 [Compound 74, Acetic acid 3-[4-(2-ethyl-3-{[4-(4-fluoro-phenyl)-thiazol-2-yl]-methyl-amino}-imidazo[1,2-a]pyridin-6-yl)-3,6-dihydro-2H-pyridine-1-sulfonyl]-propyl ester]	0.01 to 100	> 1000
CCc1nc2ccc(C3=CCS(=O)(=O)CC3)cn2c1N(C)c1nc(-c2ccc(Cl)cc2)cs1 [Compound 76, 4-(2-ethyl-3-((4-(4-chlorophenyl)thiazol-2-yl)(methyl)amino)imidazo[1,2-a]pyridin-6-yl)-3,6-dihydro-2H-thiopyran 1,1-dioxide]	0.01 to 100	> 1000
CCc1nc2ccc(C3=CCN(S(C)(=O)=O)CC3)cn2c1N(C)c1nc(-c2ccc(F)cc2)c(F)s1 [Compound 77, N-(2-ethyl-6-(1-(methylsulfonyl)-1,2,3,6-tetrahydropyridin-4-yl)imidazo[1,2-a]pyridin-3-yl)-5-fluoro-4-(4-fluorophenyl)-N-methylthiazol-2-amine]	0.01 to 100	> 1000
CCc1nc2ccc(C3CCN(C(=O)OC(C)(C)C)CC3O)cn2c1N(C)c1nc(-c2ccc(F)cc2)cs1 (stereo not drawn) [Compound 78, tert-butyl 4-(2-ethyl-3-((4-(4-fluorophenyl)thiazol-2-yl)(methyl)amino)imidazo[1,2-a]pyridin-6-yl)-3-hydroxypiperidine-1-carboxylate]	0.01 to 100	> 1000
CCc1nc2ccc(C3CCN(S(C)(=O)=O)CC3O)cn2c1N(C)c1nc(-c2ccc(F)cc2)cs1 (stereo not drawn) [Compound 79, 4-(2-ethyl-3-((4-(4-fluorophenyl)thiazol-2-yl)(methyl)amino)imidazo[1,2-a]pyridin-6-yl)-1-(methylsulfonyl) piperidin-3-ol]	0.01 to 100	> 1000
CCc1nc2ccc(C3CCN(S(C)(=O)=O)CC3)cn2c1N(C)c1nc(-c2ccc(C(C)(C)C)cc2)cs1 [Compound 81, 4-(4-tert-butylphenyl)-N-(2-ethyl-6-(1-(methylsulfonyl)piperidin-4-yl)imidazo [1,2-a]pyridin-3-yl)-N-methylthiazol-2-amine]	0.01 to 100	> 1000
CCc1nc2ccc(C3CCN(S(C)(=O)=O)CC3)cn2c1N(C)c1nc(-c2ccc(OC)cc2)cs1 [Compound 82, N-(2-ethyl-6-(1-(methylsulfonyl)piperidin-4-yl)imidazo [1,2-a]pyridin-3-yl)-4-(4-methoxyphenyl)-N-methylthiazol-2-amine]	0.01 to 100	> 1000
CCc1nc2ccc(C3CCN(S(=O)(=O)CCCCl)CC3)cn2c1N(C)c1nc(-c2ccc(F)cc2)cs1 [Compound 86, N-(6-(1-(3-chloropropylsulfonyl)piperidin-4-yl)-2-ethylimidazo[1,2-a]pyridin-3-yl)-4-(4-fluorophenyl)-N-methylthiazol-2-amine]	0.01 to 100	> 1000
CCc1nc2ccc(C3CCN(S(=O)(=O)CCCN4CCCC4)CC3)cn2c1N(C)c1nc(-c2ccc(F)cc2)cs1 [Compound 89, {2-Ethyl-6-[1-(3-pyrrolidin-1-yl-propane-1-sulfonyl)-piperidin-4-yl]-imidazo[1,2-a]pyridin-3-yl}-[4-(4-fluoro-phenyl)-thiazol-2-yl]-methyl-amine]	0.01 to 100	100 to 500
CCc1nc2ccc(C3CCN(S(=O)(=O)CCCN)CC3)cn2c1N(C)c1nc(-c2ccc(F)cc2)cs1 [Compound 90, N-(6-(1-(3-aminopropylsulfonyl)piperidin-4-yl)-2-ethylimidazo[1,2-a]pyridin-3-yl)-4-(4-fluorophenyl)-N-methylthiazol-2-amine]	0.01 to 100	500 to 1000
CCc1nc2ccc(C3CCN(S(N)(=O)=O)CC3)cn2c1N(C)c1nc(-c2ccc(F)cc2)cs1 [Compound 92, 4-(2-ethyl-3-((4-(4-fluorophenyl)thiazol-2-yl)(methyl)amino)imidazo[1,2-a]pyridin-6-yl)piperidine-1-sulfonamide]	0.01 to 100	> 1000
CCc1nc2ccc(C3CCN(S(=O)(=O)CCCOC(C)=O)CC3)cn2c1N(C)c1nc(-c2ccc(F)cc2)cs1 [Compound 93, 3-(4-(2-ethyl-3-((4-(4-fluorophenyl)thiazol-2-yl)(methyl)amino)imidazo[1,2-a]pyridin-6-yl)piperidin-1-ylsulfonyl)propyl acetate]	0.01 to 100	100 to 500
CCc1nc2ccc(C3CCN(S(C)(=O)=O)CC3)cn2c1N(C)c1nc(-c2ccc(F)cc2Cl)cs1 [Compound 99, 4-(2-chloro-4-fluorophenyl)-N-(2-ethyl-6-(1-(methylsulfonyl)piperidin-4-yl)imidazo [1,2-a]pyridin-3-yl)-N-methylthiazol-2-amine]	0.01 to 100	> 1000
CCc1nc2ccc(C3CCN(S(C)(=O)=O)CC3)cn2c1N(C)c1nc(-c2ccc(F)cc2F)cs1 [Compound 100, 4-(2,4-difluorophenyl)-N-(2-ethyl-6-(1-(methylsulfonyl)piperidin-4-yl)imidazo [1,2-a]pyridin-3-yl)-N-methylthiazol-2-amine]	0.01 to 100	> 1000
CCc1nc2ccc(C3CCN(S(C)(=O)=O)CC3)cn2c1N(C)c1nc(-c2ccc(F)cc2)c(C)s1 [Compound 101, N-(2-ethyl-6-(1-(methylsulfonyl)piperidin-4-yl)imidazo [1,2-a]pyridin-3-yl)-4-(4-fluorophenyl)-N,5-dimethylthiazol-2-amine]	0.01 to 100	> 1000
[2H]c1sc(N(c2c(CC)nc3ccc(C4CCN(S(C)(=O)=O)CC4)cn23)C([2H])([2H])[2H])nc1-c1ccc(F)cc1 [Compound 103, 4-(4-fluorophenyl)-N-(2-ethyl-6-(1-(methylsulfonyl)piperidin-4-yl)imidazo [1,2-a]pyridin-3-yl)-N-(d3-methyl)-(d-thiazol-2)-amine]	0.01 to 100	100 to 500
CCc1nc2ccc(C3CCN(S(C)(=O)=O)CC3)cn2c1N(C)c1nc(-c2ccc(F)cc2)c(C(C)=O)s1 [Compound 105, 1-(2-((2-ethyl-6-(1-(methylsulfonyl)piperidin-4-yl)imidazo[1,2-a]pyridin-3-yl)(methyl)amino)-4-(4-fluorophenyl)thiazol-5-yl)ethanone]	0.01 to 100	100 to 500
